Several values for one entry are separate records, joined by “and”; a condition that tells them apart may be missing. Identical values can stand only once. Toxic doses and inconclusive results are not listed. Cut-off read from the data, not from the text of the source: active = T/C of 150% or more; inactive = T/C below 125%.
System: L1210 leukemia ip in BDF1 mice, survival T/C
Assay: NCI In Vivo Anticancer Drug Screen. Data for tumor model L1210 Leukemia (intraperitoneal) in B6D2F1 (BDF1) mice
Settings: higher = longer survival
Outline: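 Transplanted-tumor mice were given test agent; controls received vehicle only. Survival readings from the two groups were divided (treated over control).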

[1] = endpoint: mean survival time, dose: 2.0 mg/kg/injection, schedule: Q01DX001 (ip), vehicle: saline

Measured: T/C

S=C([S][Sb]([c]1ccccc1)[c]1ccccc1)N(c1ccccc1)c1ccccc1
inactive: endpoint: mean survival time, dose: 5.0 mg/kg/injection, schedule: Q01DX001 (ip), vehicle: other 102 % of control | endpoint: mean survival time, dose: 10.0 mg/kg/injection, schedule: Q01DX001 (ip), vehicle: other 102 % of control | endpoint: mean survival time, dose: 20.0 mg/kg/injection, schedule: Q01DX001 (ip), vehicle: other 98 % of control | endpoint: mean survival time, dose: 40.0 mg/kg/injection, schedule: Q01DX001 (ip), vehicle: other 107 % of control

COC(=O)C[C@](O)(CCC(C)(C)O)C(=O)O[C@@H]1C(OC)=C[C@]23CCCN2CCc2cc4c(cc2[C@H]13)OCO4
inactive: endpoint: mean survival time, dose: 0.13 mg/kg/injection, schedule: Q#A X018 (ip), vehicle: saline 116 % of control | endpoint: mean survival time, dose: 0.25 mg/kg/injection, schedule: Q01DX009 (ip), vehicle: saline 104 % of control and 117 % of control and 124 % of control | endpoint: mean survival time, dose: 0.25 mg/kg/injection, schedule: Q01DX009 (ip), vehicle: water 118 % of control | endpoint: mean survival time, dose: 0.25 mg/kg/injection, schedule: Q03HX008 (ip), vehicle: saline 109 % of control | endpoint: mean survival time, dose: 0.25 mg/kg/injection, schedule: Q03HX016 (ip), vehicle: saline 113 % of control | endpoint: mean survival time, dose: 0.25 mg/kg/injection, schedule: Q03HX024 (ip), vehicle: saline 118 % of control | endpoint: mean survival time, dose: 0.25 mg/kg/injection, schedule: Q#A X018 (ip), vehicle: saline 114 % of control | endpoint: mean survival time, dose: 0.5 mg/kg/injection, schedule: Q01DX009 (oral), vehicle: saline 105 % of control | endpoint: mean survival time, dose: 0.5 mg/kg/injection, schedule: Q01DX009 (sc), vehicle: saline 110 % of control | endpoint: mean survival time, dose: 0.5 mg/kg/injection, schedule: Q03HX008 (ip), vehicle: saline 116 % of control | endpoint: mean survival time, dose: 0.5 mg/kg/injection, schedule: Q03HX016 (ip), vehicle: saline 107 % of control | endpoint: mean survival time, dose: 0.5 mg/kg/injection, schedule: Q03HX024 (ip), vehicle: saline 119 % of control | endpoint: mean survival time, dose: 0.5 mg/kg/injection, schedule: Q#A X018 (ip), vehicle: saline 122 % of control | endpoint: mean survival time, dose: 1.0 mg/kg/injection, schedule: Q01DX009 (oral), vehicle: saline 111 % of control | endpoint: mean survival time, dose: 1.0 mg/kg/injection, schedule: Q01DX009 (sc), vehicle: saline 121 % of control | endpoint: mean survival time, dose: 1.0 mg/kg/injection, schedule: Q03HX008 (ip), vehicle: saline 124 % of control | [1] 113 % of control | endpoint: mean survival time, dose: 2.0 mg/kg/injection, schedule: Q01DX009 (oral), vehicle: saline 112 % of control | endpoint: mean survival time, dose: 2.0 mg/kg/injection, schedule: Q04DX003 (ip), vehicle: saline 105 % of control | endpoint: mean survival time, dose: 2.0 mg/kg/injection, schedule: Q08DX002 (ip), vehicle: saline 101 % of control | endpoint: mean survival time, dose: 2.0 mg/kg/injection, schedule: Q#A X018 (ip), vehicle: saline 113 % of control | endpoint: mean survival time, dose: 4.0 mg/kg/injection, schedule: Q01DX001 (ip), vehicle: saline 110 % of control | endpoint: mean survival time, dose: 4.0 mg/kg/injection, schedule: Q01DX009 (ip), vehicle: saline 119 % of control and 124 % of control | endpoint: mean survival time, dose: 4.0 mg/kg/injection, schedule: Q01DX009 (oral), vehicle: saline 98 % of control | endpoint: mean survival time, dose: 4.0 mg/kg/injection, schedule: Q01DX009 (sc), vehicle: saline 92 % of control | endpoint: mean survival time, dose: 4.0 mg/kg/injection, schedule: Q04DX003 (ip), vehicle: saline 123 % of control | endpoint: mean survival time, dose: 4.0 mg/kg/injection, schedule: Q08DX002 (ip), vehicle: saline 107 % of control | endpoint: mean survival time, dose: 8.0 mg/kg/injection, schedule: Q01DX001 (ip), vehicle: saline 117 % of control | endpoint: mean survival time, dose: 8.0 mg/kg/injection, schedule: Q04DX003 (ip), vehicle: saline 87 % of control | endpoint: mean survival time, dose: 8.0 mg/kg/injection, schedule: Q08DX002 (ip), vehicle: saline 107 % of control | endpoint: mean survival time, dose: 16.0 mg/kg/injection, schedule: Q08DX002 (ip), vehicle: saline 98 % of control | endpoint: median survival time, dose: 0.25 mg/kg/injection, schedule: Q01DX009 (ip), vehicle: saline 100 % of control and 101 % of control | endpoint: median survival time, dose: 0.5 mg/kg/injection, schedule: Q01DX009 (ip), vehicle: saline 105 % of control and 107 % of control | endpoint: median survival time, dose: 1.0 mg/kg/injection, schedule: Q01DX009 (ip), vehicle: saline 110 % of control and 115 % of control

CCOC(=O)C1CSCC1=O (stereo not drawn)
inactive: endpoint: mean survival time, dose: 25.0 mg/kg/injection, schedule: Q01DX009 (ip), vehicle: water 97 % of control | endpoint: mean survival time, dose: 50.0 mg/kg/injection, schedule: Q01DX009 (ip), vehicle: water 90 % of control | endpoint: mean survival time, dose: 100.0 mg/kg/injection, schedule: Q01DX009 (ip), vehicle: water 104 % of control

C[n+]1ccc(N2CCCCC2)c2ccc(Cl)cc21
inactive: [1] 111 % of control

COc1ccc(S(=O)O)cc1NC(C)=O
inactive: endpoint: mean survival time, dose: 100.0 mg/kg/injection, schedule: Q01DX001 (ip), vehicle: saline 105 % of control | endpoint: mean survival time, dose: 100.0 mg/kg/injection, schedule: Q01DX009 (ip), vehicle: saline 94 % of control | endpoint: mean survival time, dose: 100.0 mg/kg/injection, schedule: Q04DX003 (ip), vehicle: saline 92 % of control and 100 % of control | endpoint: mean survival time, dose: 200.0 mg/kg/injection, schedule: Q01DX001 (ip), vehicle: saline 96 % of control | endpoint: mean survival time, dose: 200.0 mg/kg/injection, schedule: Q01DX009 (ip), vehicle: saline 87 % of control | endpoint: mean survival time, dose: 200.0 mg/kg/injection, schedule: Q04DX003 (ip), vehicle: saline 93 % of control and 95 % of control | endpoint: mean survival time, dose: 400.0 mg/kg/injection, schedule: Q01DX001 (ip), vehicle: saline 98 % of control | endpoint: mean survival time, dose: 400.0 mg/kg/injection, schedule: Q01DX009 (ip), vehicle: saline 86 % of control | endpoint: mean survival time, dose: 400.0 mg/kg/injection, schedule: Q04DX003 (ip), vehicle: saline 91 % of control and 93 % of control

CC1(C)OC2COC(c3[nH]nc(C(N)=O)c3I)C2O1 (stereo not drawn)
inactive: endpoint: mean survival time, dose: 100.0 mg/kg/injection, schedule: Q01DX005 (ip), vehicle: saline 93 % of control | endpoint: mean survival time, dose: 200.0 mg/kg/injection, schedule: Q01DX005 (ip), vehicle: saline 95 % of control

From PubChem BioAssay AID248 (DTP/NCI, 2004)
